Experimental data as given in patent US11275086B2 (priority 2010, dated 2022).
Where two headings read alike, the source gives them in different places.

Test system: MTB specific T CD4+ lymphocytes
Format: cell-based, human
Conditions: for positive tests / evaluable subjects: Microbiologically checked TB patients (before therapy start) / positive tests / evaluable subjects: Recently MTB exposed subjects: anergic subjects excluded

## TAWITAVVPGLMV (listed as Mycobacterium tuberculosis) [Peptide #1, peptide of Rv1478 (Consensus VIR)]
  positive tests / evaluable subjects: BCG-vaccinated controls: 0/15
  positive tests / evaluable subjects: Microbiologically checked TB patients (before therapy start): 12/55
  positive tests / evaluable subjects: Recently MTB exposed subjects: 14/61
  positive tests / evaluable subjects: Sanitary workers: 6/21

## ELMARAAVLGSAH (listed as Mycobacterium tuberculosis) [Peptide #6, peptide of Rv1251c]
BCG-vaccinated controls
  positive tests / evaluable subjects: BCG-vaccinated controls: 0/15
  positive tests / evaluable subjects: Microbiologically checked TB patients (before therapy start): 14/55
  positive tests / evaluable subjects: Recently MTB exposed subjects: 6/61
  positive tests / evaluable subjects: Sanitary workers: 3/21

## AVIVRSELLTQYL (listed as Mycobacterium tuberculosis) [Peptide #2, peptide of Rv1251c]
BCG-vaccinated controls
  positive tests / evaluable subjects: BCG-vaccinated controls: 0/15
  positive tests / evaluable subjects: Microbiologically checked TB patients (before therapy start): 11/55
  positive tests / evaluable subjects: Recently MTB exposed subjects: 8/61
  positive tests / evaluable subjects: Sanitary workers: 1/21

## GSVRQLPSVLKPPLITLRTLTLSG (listed as Mycobacterium tuberculosis) [Peptide #3, peptide of Rv3479]
  positive tests / evaluable subjects: BCG-vaccinated controls: 0/15
  positive tests / evaluable subjects: Microbiologically checked TB patients (before therapy start): 27/55
  positive tests / evaluable subjects: Recently MTB exposed subjects: 20/61
  positive tests / evaluable subjects: Sanitary workers: 7/21
Result in words
  sensitivity compared with ESAT-6 derived control peptide: elevated sensitivity comparable, if not more elevated, to multiepitope ESAT-6 protein derived control peptide

## RPVRRVLLFVVPSSGPAP (listed as Mycobacterium tuberculosis) [Peptide #4, peptide of Rv3479]
  positive tests / evaluable subjects: BCG-vaccinated controls: 0/15
  positive tests / evaluable subjects: Microbiologically checked TB patients (before therapy start): 10/55
  positive tests / evaluable subjects: Recently MTB exposed subjects: 13/61
  positive tests / evaluable subjects: Sanitary workers: 6/21

## GEIIFISGRLNGaa (GEIIFISGRLNGAA; listed as Mycobacterium tuberculosis) [Peptide #5, peptide of Rv0724A]
BCG-vaccinated controls
  positive tests / evaluable subjects: BCG-vaccinated controls: 0/15
  positive tests / evaluable subjects: Microbiologically checked TB patients (before therapy start): 18/55
  positive tests / evaluable subjects: Recently MTB exposed subjects: 11/61
  positive tests / evaluable subjects: Sanitary workers: 5/21
